In patent US11524960B2, “Heterobicyclic inhibitors of MAT2A and methods of use for treating cancer” (AGIOS PHARMACEUTICALS, INC., priority 2018, dated 2022) one finds IC50 data, which are given here for 20 compounds.

SMILES strings stand for the structures. pIC50: −log10 of the molar value.

In one test the target is T1, MAT2A homodimer (Homo sapiens, UniProt P31153).
T1 construct: inferred from Ni sepharose purification and imidazole elution; made in house; host or cells: Sf9 insect cells, recombinant baculovirus (Bac to Bac, pFASTBAC1)
Nature of the test: Biochemical assay: inhibition of MAT2A (phosphate release, PiColorLock Gold). The conditions noted are these: MAT2A IC50 score; read-out: Enzyme Inhibition (Example 275). A digest of the protocol:
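Phosphate formed alongside SAM was read with PiColorLock Gold and quantified against a potassium phosphate standard curve. Reactions ran 60 min at 25 °C after adding a substrate mix of 500 μM ATP and 400 μM L-methionine (mix concentrations). Compound had first been preincubated 60 min with recombinant Sf9-derived MAT2A homodimer ([…]) in pH 8.0 Tris buffer containing MgCl2, KCl, EDTA and BSA.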

For another test, the system named is HCT116 MTAP−/−. Put plainly: Inhibition of cellular proliferation (Cell Titer Glo), HCT116 MTAP−/−. It counts as cell-based, human. The conditions noted are these: Homo sapiens, HCT-116, 96 h, 4 days, IC50 score, read-out: 4 Day Relative Growth Inhibition (MTAP −/−; Example 277). Summed up:
(§1)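 Proliferation was read as ATP luminescence (Cell Titer Glo) after a 4-day, 37 °C exposure of HCT116 cells differing only in MTAP deletion status. Dosing was 10 points, 3-fold steps, added 24 h post-plating; signal minus blank, relative to 0.2% DMSO control wells, was plotted against log molar concentration.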
A general note: In ATP-based viability assays light output follows the ATP content of the culture.

Another test has as its system HCT116 MTAP+/+. Put plainly: Inhibition of cellular proliferation (Cell Titer Glo), HCT116 MTAP+/+. It counts as cell-based, human. The conditions noted are these: Homo sapiens, HCT-116, 96 h, 4 days, IC50 score, read-out: 4 Day Relative Growth Inhibition (MTAP +/+; Example 277). A digest of the protocol:
as §1

For test [1], the system named is SAM in HCT116 human colon carcinoma cell line engineered to delete the MTAP gene (MTAP −/−). Nature of the test: Cellular assay of target engagement (SAM) by LC-MS/MS. Type of test: cell-based. To be noted: Homo sapiens, HCT-116, 72 h, IC50 score, read-out: Cell 72 h SAM Inhibition (MTAP −/−; Example 276). A digest of the protocol: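 Intracellular SAM, the MAT2A product, was measured by quantitative LC-MS/MS against a d3-SAM standard in methanol/acetic acid extracts. Extracts came from HCT116 MTAP −/− cells exposed for 72 h at 37 °C to a ten-point, threefold dilution series of compound, added one day after seeding.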

T1 sequence (P31153 whole entry): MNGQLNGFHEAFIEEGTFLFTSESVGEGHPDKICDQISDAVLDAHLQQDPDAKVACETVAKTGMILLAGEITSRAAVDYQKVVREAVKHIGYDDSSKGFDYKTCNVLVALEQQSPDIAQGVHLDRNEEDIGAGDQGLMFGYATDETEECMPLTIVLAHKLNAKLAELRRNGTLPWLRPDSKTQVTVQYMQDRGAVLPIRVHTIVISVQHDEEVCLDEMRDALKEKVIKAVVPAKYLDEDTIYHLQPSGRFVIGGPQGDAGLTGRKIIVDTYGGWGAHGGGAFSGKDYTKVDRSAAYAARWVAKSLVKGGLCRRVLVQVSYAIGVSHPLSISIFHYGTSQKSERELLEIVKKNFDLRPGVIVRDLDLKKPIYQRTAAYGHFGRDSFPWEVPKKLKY

On to `COc1ccc(-n2cc3cnc(NCC(F)(F)F)nc3c(-c3ccc(C4CC4)cc3)c2=O)cc1` [Example 167, 8-(4-cyclopropylphenyl)-6-(4-methoxyphenyl)-2-((2,2,2-trifluoroethyl)amino)pyrido[4,3-d]pyrimidin-7(6)-one], for which the pIC50 is greater than 7.00 at MAT2A homodimer, 5.00 to 7.00 with HCT116 MTAP−/−, less than 5.00 in the test on HCT116 MTAP+/+ and 6.00 to 7.00 in test [1].

On to `O=c1c(-c2ccc(C3CC3)cc2)c2nc(NCC(F)(F)F)ncc2cn1-c1ccc2ncccc2c1` [Example 168, 8-(4-cyclopropylphenyl)-6-(quinolin-6-yl)-2-((2,2,2-trifluoroethyl)amino)pyrido[4,3-d]pyrimidin-7(6)-one], for which the pIC50 at MAT2A homodimer was greater than 7.00; in the test with HCT116 MTAP−/−, greater than 7.00; in the test with HCT116 MTAP+/+, less than 5.00; in test [1] it was greater than 7.00.

As to `CCNc1ncc2cn(-c3ccc4nn(C)cc4c3)c(=O)c(-c3ccc(Cl)cc3)c2n1` [Example 169, 8-(4-chlorophenyl)-2-(ethylamino)-6-(2-methyl-2H-indazol-5-yl)pyrido[4,3-d]pyrimidin-7(6H)-one], the pIC50 on MAT2A homodimer is greater than 7.00; in the test with HCT116 MTAP−/− it was greater than 7.00; with HCT116 MTAP+/+, less than 5.00; in test [1], greater than 7.00.

Regarding `CCNc1ncc2cn(-c3ccc4nn(C)cc4c3)c(=O)c(-c3ccc(OC(F)F)cc3)c2n1` [Example 171, 8-(4-(difluoromethoxy)phenyl)-2-(ethylamino)-6-(2-methyl-2H-indazol-5-yl)pyrido[4,3-d]pyrimidin-7(6H)-one], the pIC50 at MAT2A homodimer is greater than 7.00; in the test with HCT116 MTAP−/−, greater than 7.00; with HCT116 MTAP+/+ it was less than 5.00; in test [1], greater than 7.00.

As for `Cn1cc2cc(-n3cc4cnc(NC5CC5)nc4c(-c4ccc(OC(F)F)cc4)c3=O)ccc2n1` [Example 172, 2-(cyclopropylamino)-8-(4-(difluoromethoxy)phenyl)-6-(2-methyl-2H-indazol-5-yl)pyrido[4,3-d]pyrimidin-7(6H)-one], the pIC50 was greater than 7.00 at MAT2A homodimer, greater than 7.00 in the test with HCT116 MTAP−/−, less than 5.00 with HCT116 MTAP+/+ and greater than 7.00 in test [1].

For `COc1ccc(-c2c(=O)n(-c3ccc4c(c3)OCCO4)cc3cnc(NCC(F)(F)F)nc23)cc1` [Example 177, 6-(2,3-dihydrobenzo[b][1,4]dioxin-6-yl)-8-(4-methoxyphenyl)-2-((2,2,2-trifluoroethyl)amino)pyrido[4,3-d]pyrimidin-7(6H)-one], the pIC50 is greater than 7.00 at MAT2A homodimer, 5.00 to 7.00 with HCT116 MTAP−/−, less than 5.00 in the test with HCT116 MTAP+/+ and greater than 7.00 in test [1].

As for `O=c1c(-c2ccc(OC(F)F)cc2)c2nc(NCC(F)(F)F)ncc2cn1-c1ccc2c(c1)OCCO2` [Example 178, 8-(4-(difluoromethoxy)phenyl)-6-(2,3-dihydrobenzo[b][1,4]dioxin-6-yl)-2-((2,2,2-trifluoroethyl)amino)pyrido[4,3-d]pyrimidin-7(6H)-one], the pIC50 was greater than 7.00 at MAT2A homodimer, 5.00 to 7.00 in the test with HCT116 MTAP−/−, 5.00 to 7.00 in the test with HCT116 MTAP+/+ and greater than 7.00 in test [1].

In the case of `O=c1c(-c2ccc(OC(F)F)cc2)c2nc(NC3CC3)ncc2cn1-c1ccc2ncccc2c1` [Example 179, 2-(cyclopropylamino)-8-(4-(difluoromethoxy)phenyl)-6-(quinolin-6-yl)pyrido[4,3-d]pyrimidin-7(6)-one], the pIC50 at MAT2A homodimer was greater than 7.00; in the test with HCT116 MTAP−/− it was 5.00 to 7.00; with HCT116 MTAP+/+ it was less than 5.00; in test [1], 6.00 to 7.00.

As to `O=c1c(-c2ccc(Br)cc2)c2nc(NCC(F)(F)F)ncc2cn1-c1ccc2ncccc2c1` [Example 180, 8-(4-bromophenyl)-6-(quinolin-6-yl)-2-((2,2,2-trifluoroethyl)amino)pyrido[4,3-d]pyrimidin-7(6H)-one], the pIC50 was greater than 7.00 on MAT2A homodimer, greater than 7.00 in the test with HCT116 MTAP−/−, less than 5.00 with HCT116 MTAP+/+ and greater than 7.00 in test [1].

Regarding `COc1ccc(-c2c(=O)n(-c3ccc4ncccc4c3)cc3cnc(NCC(F)(F)F)nc23)cc1` [Example 181, 8-(4-methoxyphenyl)-6-(quinolin-6-yl)-2-((2,2,2-trifluoroethyl)amino)pyrido[4,3-d]pyrimidin-7(6H)-one], the pIC50 on MAT2A homodimer was greater than 7.00; in the test on HCT116 MTAP−/− it was 5.00 to 7.00; in the test with HCT116 MTAP+/+, less than 5.00; in test [1] it was greater than 7.00.

On to `CC(C)Nc1ncc2cn(-c3ccc4ncccc4c3)c(=O)c(-c3ccc(OC(F)F)cc3)c2n1` [Example 182, 8-(4-(difluoromethoxy)phenyl)-2-(isopropylamino)-6-(quinolin-6-yl)pyrido[4,3-d]pyrimidin-7(6)-one], for which the pIC50 on MAT2A homodimer was greater than 7.00; with HCT116 MTAP−/−, 5.00 to 7.00; with HCT116 MTAP+/+ it was less than 5.00; in test [1], greater than 7.00.

`O=c1c(-c2ccc(OC(F)F)cc2)c2nc(NC3CCC3)ncc2cn1-c1ccc2ncccc2c1` [Example 183, 2-(cyclobutylamino)-8-(4-(difluoromethoxy)phenyl)-6-(quinolin-6-yl)pyrido[4,3-d]pyrimidin-7(6)-one]: the pIC50 on MAT2A homodimer is greater than 7.00; in the test with HCT116 MTAP−/− it was 5.00 to 7.00; with HCT116 MTAP+/+, less than 5.00; in test [1], 6.00 to 7.00.

Turning to `CCNc1ncc2cn(-c3ccc(OC)cc3)c(=O)c(-c3ccc(Br)cc3)c2n1` [Example 188, 8-(4-bromophenyl)-2-(ethylamino)-6-(4-methoxyphenyl)pyrido[4,3-d]pyrimidin-7(6H)-one], the pIC50 on MAT2A homodimer was greater than 7.00; in the test with HCT116 MTAP−/−, 5.00 to 7.00; in the test with HCT116 MTAP+/+, less than 5.00; in test [1], greater than 7.00.

For `COc1ccc(-n2cc3cnc(NCC(F)F)nc3c(-c3ccc(Br)cc3)c2=O)cc1` [Example 189, 8-(4-bromophenyl)-2-((2,2-difluoroethyl)amino)-6-(4-methoxyphenyl)pyrido[4,3-d]pyrimidin-7(6H)-one], the pIC50 on MAT2A homodimer is greater than 7.00; with HCT116 MTAP−/−, 5.00 to 7.00; in the test with HCT116 MTAP+/+ it was 5.00 to 7.00; in test [1], greater than 7.00.

With `COc1ccc(-n2cc3cnc(NCC(F)(F)F)nc3c(-c3ccc(Br)cc3)c2=O)cc1` [Example 192, 8-(4-bromophenyl)-6-(4-methoxyphenyl)-2-((2,2,2-trifluoroethyl)amino)pyrido[4,3-d]pyrimidin-7(6H)-one], the pIC50 is greater than 7.00 on MAT2A homodimer, 5.00 to 7.00 in the test with HCT116 MTAP−/−, less than 5.00 with HCT116 MTAP+/+ and greater than 7.00 in test [1].

On to `COc1ccc(-n2cc3cnc(NCC(F)(F)F)nc3c(-c3ccc(Cl)cc3)c2=O)cc1` [Example 193, 8-(4-chlorophenyl)-6-(4-methoxyphenyl)-2-((2,2,2-trifluoroethyl)amino)pyrido[4,3-d]pyrimidin-7(6H)-one], for which the pIC50 at MAT2A homodimer was greater than 7.00; in the test with HCT116 MTAP−/−, 5.00 to 7.00; in the test on HCT116 MTAP+/+ it was less than 5.00; in test [1], 6.00 to 7.00.

As for `COc1ccc(-n2cc3cnc(NCC(F)(F)F)nc3c(-c3ccc(OC(F)F)cc3)c2=O)cc1` [Example 195, 8-(4-(difluoromethoxy)phenyl)-6-(4-methoxyphenyl)-2-((2,2,2-trifluoroethyl)amino)pyrido[4,3-d]pyrimidin-7(6H)-one], the pIC50 on MAT2A homodimer is greater than 7.00; with HCT116 MTAP−/−, greater than 7.00; in the test with HCT116 MTAP+/+, less than 5.00; in test [1] it was greater than 7.00.

In the case of `COc1ccc(-n2cc3cnc(NCC(F)(F)F)nc3c(-c3ccc(C4CC4)nc3)c2=O)cc1` [Example 198, 8-(6-cyclopropylpyridin-3-yl)-6-(4-methoxyphenyl)-2-((2,2,2-trifluoroethyl)amino)pyrido[4,3-d]pyrimidin-7(6)-one], the pIC50 is greater than 7.00 at MAT2A homodimer, 5.00 to 7.00 with HCT116 MTAP−/−, less than 5.00 with HCT116 MTAP+/+ and 6.00 to 7.00 in test [1].

With `COc1ccc(-c2c(=O)n(-c3ccc(OC)cc3)cc3cnc(NCC(F)(F)F)nc23)cc1` [Example 200, 6,8-bis(4-methoxyphenyl)-2-(2,2,2-trifluoroethylamino)pyrido[4,3-d]pyrimidin-7(6H)-one], the pIC50 on MAT2A homodimer was greater than 7.00; in the test with HCT116 MTAP−/− it was 5.00 to 7.00; with HCT116 MTAP+/+, 5.00 to 7.00; in test [1], 6.00 to 7.00.

For the compound `COc1ccc(-n2cc3cnc(NCC(F)(F)F)nc3c(-c3ccc(-c4cc[nH]n4)cc3)c2=O)cc1` [Example 202, 8-(4-(H-pyrazol-3-yl)phenyl)-6-(4-methoxyphenyl)-2-((2,2,2-trifluoroethyl)amino)pyrido[4,3-d]pyrimidin-7(6H)-one], the pIC50 on MAT2A homodimer is greater than 7.00; in the test on HCT116 MTAP−/−, 5.00 to 7.00; in the test on HCT116 MTAP+/+ it was less than 5.00; in test [1], 6.00 to 7.00.
